Assay results from patent US7419780B2, “Methods and assays for screening protein targets” (The Trustees of Columbia University in the City of New York, priority 2000, dated 2008).

Experiments:
Assay type in all cases: cell-based, S. cerevisiae
Details in all cases: 1 uM small molecule, difference to activity without small molecule, average of two trials
[1] = target: T1, LexA (GSG)2mDHFR / B42 (GSG)rGR2 (UniProt P00375+P06536, C656G/F620S); experiment: β-galactosidase activity assay, strain V504Y
T1 construct: rat Glucocorticoid Receptor (aa 524-795) with point mutations; expressed in transfected cells; host or cells: S. cerevisiae FY250
T1 sequence (P00375 1-187): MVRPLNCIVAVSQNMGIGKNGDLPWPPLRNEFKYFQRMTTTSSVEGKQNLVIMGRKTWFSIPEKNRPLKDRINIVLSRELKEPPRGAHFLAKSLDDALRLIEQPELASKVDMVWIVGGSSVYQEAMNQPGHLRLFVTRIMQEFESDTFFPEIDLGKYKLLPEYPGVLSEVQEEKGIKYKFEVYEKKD
T1 sequence (P06536 524-795 F620S/C656G limits assumed): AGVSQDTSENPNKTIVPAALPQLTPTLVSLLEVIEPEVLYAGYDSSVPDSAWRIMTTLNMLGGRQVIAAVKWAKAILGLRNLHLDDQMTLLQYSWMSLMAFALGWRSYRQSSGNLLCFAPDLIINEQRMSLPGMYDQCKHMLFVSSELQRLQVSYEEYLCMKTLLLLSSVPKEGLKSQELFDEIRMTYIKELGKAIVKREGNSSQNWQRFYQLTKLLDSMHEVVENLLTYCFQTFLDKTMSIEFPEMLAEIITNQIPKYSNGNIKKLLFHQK
From the text: (§1) Table III explains the components of each strain. Each strain was constructed from the parent yeast strain FY250 and also contains the pMW106 plasmid, which has the LacZ reporter gene that is turned on only in when the LexA DNA binding domain and the B42 activation are brought in tot he vicinity of each other. We use several different strains because we use DHFR from two different species, mDHFR is from murine, while eDHFR is from E. coli. We are asl oable to switch the small moleculebinding domains. For example, the strain containing LexA-eDHFR with B42-rGH2 is a different strain and behaves differently from the strain containing LexA-rGR2 with B42-eDHFR. We also put in short 6 amino acid linkers between the two domains of our protein chimeras and thus these are different strain as well.
(§2) The results in Table IV are averages of two separate trials. Each strain was examined with small molecules and without small molecules. The absolute activity is given as the β-galactisidase activity […]. The average β-galactosidse activity for a strain without small molecule (i.e. the negative control) was about 100 β-galactosidase units.

[2] = target: T2, LexA (GSG)2rGR2 / B42 eDHFR (UniProt P06536+P0ABQ4, C656G/F620S); experiment: β-galactosidase activity assay, strain V506Y
T2 construct: expressed in transfected cells; host or cells: S. cerevisiae FY250 with pMW106 lacZ reporter
T2 sequence (P06536 524-795 F620S/C656G limits assumed): T1 sequence (P06536 524-795 F620S/C656G limits assumed)
T2 sequence (P0ABQ4 1-159): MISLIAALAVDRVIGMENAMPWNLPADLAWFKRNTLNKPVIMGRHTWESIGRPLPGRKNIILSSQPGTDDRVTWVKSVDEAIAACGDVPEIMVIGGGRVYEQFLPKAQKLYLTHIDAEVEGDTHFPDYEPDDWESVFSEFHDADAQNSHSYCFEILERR
From the text: as §1, §2

[3] = target: T3, LexA (GSG)2mDHFR / B42 gly6rGR2 (UniProt P00375+P06536, C656G/F620S); experiment: β-galactosidase activity assay, strain V503Y
T3 construct: expressed in transfected cells; host or cells: S. cerevisiae FY250 with pMW106 lacZ reporter
T3 sequence (P00375 1-187): T1 sequence (P00375 1-187)
T3 sequence (P06536 524-795 F620S/C656G limits assumed): T1 sequence (P06536 524-795 F620S/C656G limits assumed)
From the text: as §1, §2

[4] = target: T4, LexA (GSG)2eDHFR / B42 (GSG)rGR2 (UniProt P06536+P0ABQ4, C656G/F620S); experiment: β-galactosidase activity assay, strain V501Y
T4 construct: rat Glucocorticoid Receptor (aa 524-795) with point mutations; expressed in transfected cells; host or cells: S. cerevisiae FY250
T4 sequence (P0ABQ4 1-159): T2 sequence (P0ABQ4 1-159)
T4 sequence (P06536 524-795 F620S/C656G limits assumed): T1 sequence (P06536 524-795 F620S/C656G limits assumed)
From the text: as §1, §2

[5] = target: T5, LexA rGR2 / B42 eDHFR (UniProt P06536+P0ABQ4, C656G/F620S); experiment: β-galactosidase activity assay, strain V505Y
T5 construct: rat Glucocorticoid Receptor (aa 524-795) with point mutations; expressed in transfected cells; host or cells: S. cerevisiae FY250
T5 sequence (P06536 524-795 F620S/C656G limits assumed): T1 sequence (P06536 524-795 F620S/C656G limits assumed)
T5 sequence (P0ABQ4 1-159): T2 sequence (P0ABQ4 1-159)
From the text: as §1, §2

[6] = target: T6, LexA rGR2 / B42 (GSG)2mDHFR (UniProt P00375+P06536, C656G/F620S); experiment: β-galactosidase activity assay, strain V511Y
T6 construct: expressed in transfected cells; host or cells: S. cerevisiae FY250 with pMW106 lacZ reporter
T6 sequence (P06536 524-795 F620S/C656G limits assumed): T1 sequence (P06536 524-795 F620S/C656G limits assumed)
T6 sequence (P00375 1-187): T1 sequence (P00375 1-187)
From the text: as §1, §2

[7] = target: T7, LexA (GSG)2rGR2 / B42 mDHFR (UniProt P00375+P06536, C656G/F620S); experiment: β-galactosidase activity assay, strain V508Y
T7 construct: expressed in transfected cells; host or cells: S. cerevisiae FY250 with pMW106 lacZ reporter
T7 sequence (P06536 524-795 F620S/C656G limits assumed): T1 sequence (P06536 524-795 F620S/C656G limits assumed)
T7 sequence (P00375 1-187): T1 sequence (P00375 1-187)
From the text: as §1, §2

[8] = target: T8, LexA (GSG)2mDHFR / B42 rGR2 (UniProt P00375+P06536, C656G/F620S); experiment: β-galactosidase activity assay, strain V502Y
T8 construct: rat Glucocorticoid Receptor (aa 524-795) with point mutations; expressed in transfected cells; host or cells: S. cerevisiae FY250
T8 sequence (P00375 1-187): T1 sequence (P00375 1-187)
T8 sequence (P06536 524-795 F620S/C656G limits assumed): T1 sequence (P06536 524-795 F620S/C656G limits assumed)
From the text: as §1, §2

[9] = target: T9, LexA rGR2 / B42 mDHFR (UniProt P00375+P06536, C656G/F620S); experiment: β-galactosidase activity assay, strain V507Y
T9 construct: rat Glucocorticoid Receptor (aa 524-795) with point mutations; expressed in transfected cells; host or cells: S. cerevisiae FY250
T9 sequence (P06536 524-795 F620S/C656G limits assumed): T1 sequence (P06536 524-795 F620S/C656G limits assumed)
T9 sequence (P00375 1-187): T1 sequence (P00375 1-187)
From the text: as §1, §2

[10] = target: T10, LexA eDHFR / B42 gly6rGR2 (UniProt P06536+P0ABQ4, C656G/F620S); experiment: β-galactosidase activity assay, strain V375Y
T10 construct: rat Glucocorticoid Receptor (aa 524-795) with point mutations; expressed in transfected cells; host or cells: S. cerevisiae FY250
T10 sequence (P0ABQ4 1-159): T2 sequence (P0ABQ4 1-159)
T10 sequence (P06536 524-795 F620S/C656G limits assumed): T1 sequence (P06536 524-795 F620S/C656G limits assumed)
From the text: as §1, §2

C[C@@H]1C[C@H]2C3CCC4=CC(=O)C=C[C@]4(C)[C@@]3(F)[C@@H](O)C[C@]2(C)[C@@]1(O)C(=O)NCCSCCCCCCCCSCC[C@H](NC(=O)c1ccc(N(C)Cc2cnc3nc(N)nc(N)c3n2)cc1)C(=O)O (stereo partly shown) [D8M]
B-gal activity [1]: 30 β-galactosidase units
B-gal activity [2]: 3867 β-galactosidase units
B-gal activity [3]: 45 β-galactosidase units
B-gal activity [4]: 6660 β-galactosidase units
B-gal activity [5]: 2532 β-galactosidase units
B-gal activity [6]: −129 β-galactosidase units
B-gal activity [7]: −5 β-galactosidase units
B-gal activity [8]: 30 β-galactosidase units
B-gal activity [9]: −6 β-galactosidase units
B-gal activity [10]: 5210 β-galactosidase units
